Key:
[1] = Maximum solubility of GHB as a function of pH of the aqueous medium; format: physicochemical
Method: It will be understood that the maximum solubility of GHB is affected by the pH of the aqueous medium. For example, at about pH 4, the maximum amount of Na•GHB that can be dissolved is about 450 mg/ml.

[2] = Chemical stability of GHB as a function of pH (GBL formation); conditions: aqueous GHB compositions

| SMILES | maximum amount that can be dissolved ([1]; aqueous medium at about pH 4) | minimal pH that will dissolve 750 mg/ml GHB ([1]; 750 mg/ml GHB, aqueous medium) | pH at which GBL begins to form [2] |
| --- | --- | --- | --- |
| O=C([O-])CCCO.[Na+] [Na•GHB, sodium gamma-hydroxybutyrate] | about 450 mg/ml | – | – |
| O=C(O)CCCO [GHB, gamma-hydroxybutyrate] | – | ~6.8 | ≤ 6 |
